Reference: PubChem BioAssay AID1963442 (Molecular Pharmacology Branch, DTP, NCI, 2024)
pIC50: −log10 of the molar value. “And” between values parts separate entries of the source, which are not always exact repeats. Equal entries are not always repeated.

System: MPNST complex spheroid with HUVEC/MSC, growth, % test/control
Test: Anticancer human tumor MPNST cell line growth inhibition [Asc];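 also: compounds left on spheroids for seven days before reading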
Details: for viability, T/C: stronger effect = lower value; active = viability on the fitted dose curve at most 10% of control; inactive = the rest
Protocol: Multicellular complex tumor spheroid response to apoptosis pathway targeting inhibitors Alrizomadlin, Pelcitoclax, and Dasminapant in combination with a variety of drugs and investigational agents in selected tumor cell lines
The MDM2 inhibitor alrizomadlin, the Bcl-2/Bcl-xL inhibitor pelcitoclax, and the IAPs inhibitor dasminapant were evaluated both individually and in combination with standard of care and investigational anticancer small molecules within a complex spheroid model of solid tumors. . Complex spheroids include a stromal component modeled by human endothelial cells (HUVEC) and fibroblasts modeled by human mesenchymal stem cells (MSCs). The concentration ranges selected for each drug and investigational agent were based upon clinically achievable concentrations if the clinical Cmax of the agent was known.
Compounds. The drugs and investigational agents: alrizomadlin (APG-115; NSC831270), pelcitoclax (APG-1252; NSC835773), dasminapant (APG-1387;NSC834197), TAK-243 (NSC785004), copanlisib (NSC809693), olaparib (NSC753686), talazoparib (NSC767125), cobimetinib (NSC 768068), eltanexor (KPT-8602, NSC 794443), abemaciclib (NSC 768073), sotorasib (NSC818433), adagrasib (NSC 831453), MRTX-1133 (NSC 836407), Iadademestat (ORY1001, NSC 806812), and RMC-4630 (NSC839698), were obtained from the NCI Developmental Therapeutics Program Chemical Repository. The FDA-approved anticancer drug set is available from the Developmental Therapeutics Program at https://dtp.cancer.gov/organization/dscb/obtaining/available plates.htm. […] The stock solutions were prepared in dimethyl sulfoxide (DMSO, Sigma-Aldrich, St. Louis, MO, cat. D2650) at 800-fold the tested concentration and stored at -70 degrees C prior to their use. All drugs and investigational agents were tested over a range starting from a high concentration at or near the clinical Cmax and decreasing in half-log increments. If the clinical Cmax for an agent had not been determined, the highest concentration tested was 10 microM.
The patient-derived cancer (PDC) cell lines include five colon adenocarcinomas: 186277-243-T-J2-PDC, 616215-338-R-J1-PDC, 439559-082-T-J2-PDC, 463943-066-T-J2-PDC, and 519858-162-T-J1-PDC; three pancreatic carcinomas: 323965-272-R-J2-PDC, 521955-158-R6-J3-PDC, and 521955-158-R2-J5-PDC; two uterine sarcomas: 327498-152-R-J2-PDC and 993429-296-R-J1-PDC; two rhabdomyosarcomas: 755483-174-R-J1-PDC and 772245-204-R-J1-PDC; two soft tissue sarcomas: 126254-015-R-J1-PDC and 494315-158-R-J1-PDC; two malignant fibrous histiocytomas: 317291-083-R-J1-PDC and 596521-263-R-J1-PDC; two breast carcinomas: 171881-019-R-J1-PDC and 885512-296-R-J2-PDC; and one ovarian carcinoma: 6556581-035-R-J-PDC were obtained from the NCI PDMR, (https://pdmr.cancer.gov). The established cell lines HSSY-2 synovial sarcoma (RRID:CVCL 8719), SYO-1 synovial sarcoma (RRID:CVCL_7146), MPNST malignant peripheral neural sheath tumor were obtained from the Sloan Kettering Institute. The following established cell lines were purchased from the American Type Culture Collection (ATCC, Manassas, VA), Sor the received from the NCI repository:, PANC-1 pancreatic carcinoma (CRL-1469, RRID:CVCL_0480), OVCAR-5 ovarian carcinoma (RRID:CVCL_1628), OVCAR-8 ovarian carcinoma (RRID:CVCL_1629), , MCF-7 breast carcinoma (CRL-12584, RRID:CVCL_0031), MDA-MB-231 breast carcinoma (CRL-12532, RRID:CVCL_0062), NCI-H1876 small cell lung carcinoma (CRL-5902, RRID:CVCL_1503), NCI-H510A small cell lung carcinoma (HTB-184, RRID:CVCL_1565), NCI-H1417 (CRL-5869, RRID:CVCL_1469), and NCI-H196 small cell lung carcinoma (CRL-5823, RRID:CVCL_1509). Dr. Peter Houghton (Greehey Children's Cancer Research Institute, University of Texas Health Science Center, San Antonio, TX) provided Rh-18 rhabdomyosarcoma (RRID:CVCL_1659). Pooled donor human umbilical vein endothelial cells (HUVEC, Lonza, cat. CC-2519) and human mesenchymal stem cells (hMSC, Lonza, cat. PT-2501) were purchased from Lonza (Walkersville, MD).
Cell Culture. […]

Cn1ncnc1[C@H]1c2n[nH]c(=O)c3cc(F)cc(c23)N[C@@H]1c1ccc(F)cc1 + CNC(C)C(=O)NC1CN(S(=O)(=O)c2cccc(S(=O)(=O)N3CCC4CCC(C(=O)NC(c5ccccc5)c5ccccc5)N4C(=O)C(NC(=O)C(C)NC)C3)c2)CCC2CCC(C(=O)NC(c3ccccc3)c3ccccc3)N2C1=O
7.63: pIC50 (curve of first compound, second compound 0.0316 µM)
7.09: pIC50 (curve of first compound, second compound 0.1 µM)
7.01: pIC50 (curve of first compound, second compound 1 µM)
> 9.50: pIC50 (curve of first compound, second compound 0.00316 µM)
inactive: viability, T/C (second compound 0.00316 µM, first compound 0.000316 µM) 12.2% | viability, T/C (second compound 0.00316 µM, first compound 0.001 µM) 11.4% | viability, T/C (second compound 0.00316 µM, first compound 0.00316 µM) 10.4% | viability, T/C (second compound 0.00316 µM, first compound 0.01 µM) 11.5% | viability, T/C (second compound 0.00316 µM, first compound 0.0316 µM) 11.3% | viability, T/C (second compound 0.00316 µM, first compound 0.1 µM) 10.7% | viability, T/C (second compound 0.01 µM, first compound 0.000316 µM) 58.8% | viability, T/C (second compound 0.01 µM, first compound 0.001 µM) 46.2% | viability, T/C (second compound 0.01 µM, first compound 0.00316 µM) 50.8% | viability, T/C (second compound 0.01 µM, first compound 0.01 µM) 37.4% | viability, T/C (second compound 0.01 µM, first compound 0.0316 µM) 32.5% | viability, T/C (second compound 0.01 µM, first compound 0.1 µM) 34.8% | viability, T/C (second compound 0.0316 µM, first compound 0.000316 µM) 77.7% | viability, T/C (second compound 0.0316 µM, first compound 0.001 µM) 73.9% | viability, T/C (second compound 0.0316 µM, first compound 0.00316 µM) 73.6% | viability, T/C (second compound 0.0316 µM, first compound 0.01 µM) 65.4% | viability, T/C (second compound 0.0316 µM, first compound 0.0316 µM) 43.5% | viability, T/C (second compound 0.0316 µM, first compound 0.1 µM) 45.2% | viability, T/C (second compound 0.1 µM, first compound 0.000316 µM) 90.3% | viability, T/C (second compound 0.1 µM, first compound 0.001 µM) 64.1% | viability, T/C (second compound 0.1 µM, first compound 0.00316 µM) 70.6% | viability, T/C (second compound 0.1 µM, first compound 0.01 µM) 74.7% | viability, T/C (second compound 0.1 µM, first compound 0.0316 µM) 61.1% | viability, T/C (second compound 0.1 µM, first compound 0.1 µM) 46.4% | viability, T/C (second compound 0.316 µM, first compound 0.000316 µM) 76.2% | viability, T/C (second compound 0.316 µM, first compound 0.001 µM) 62.5% | viability, T/C (second compound 0.316 µM, first compound 0.00316 µM) 88.4% | viability, T/C (second compound 0.316 µM, first compound 0.01 µM) 57.5% | viability, T/C (second compound 0.316 µM, first compound 0.0316 µM) 51.3% | viability, T/C (second compound 0.316 µM, first compound 0.1 µM) 46.1% | viability, T/C (second compound 1 µM, first compound 0.000316 µM) 51.3% | viability, T/C (second compound 1 µM, first compound 0.001 µM) 68.3% | viability, T/C (second compound 1 µM, first compound 0.00316 µM) 49.5% | viability, T/C (second compound 1 µM, first compound 0.01 µM) 73.9% | viability, T/C (second compound 1 µM, first compound 0.0316 µM) 53.9% | viability, T/C (second compound 1 µM, first compound 0.1 µM) 50.1%
7.57: pIC50 (curve of first compound, second compound 0.316 µM)
8.96: pIC50 (curve of first compound, second compound 0.01 µM)

C=CC(=O)N1CCN(c2nc(=O)n(-c3c(C)ccnc3C(C)C)c3nc(-c4c(O)cccc4F)c(F)cc23)C(C)C1 (centres undefined)
inactive: viability, T/C (compound 0.0316 µM) 99.3% and 91.7% and 80.4% | viability, T/C (compound 0.1 µM) 81% and 76.5% and 90.9% | viability, T/C (compound 0.316 µM) 99% and 90.2% and 92.3% | viability, T/C (compound 1 µM) 87.4% and 78.7% and 108% | viability, T/C (compound 3.16 µM) 104% and 121% (2×) | viability, T/C (compound 10 µM) 101% and 143% and 119%
< 5.00: pIC50 (curve of compound)
